What was measured:
[1] = Compound cytotoxicity, XTT-based colorimetric assay; type: cell-based; conditions: human; uninfected MT2 cells, day 4, XTT assay
Experimental: Compound cytotoxicity and the corresponding CC50 values were determined using the same protocol as described in the antiviral assay except that uninfected cells were used. Cytotoxicity was assessed on day 4 in uninfected MT2 cells by using an XTT (2,3-bis[2-Methoxy-4-nitro-5-sulfophenyl]-2H-tetrazolium-5-carboxyanilide inner salt)-based colorimetric assay (Sigma-Aldrich, St Louis, Mo).

recombinant NL4-3 virus = assay: HIV cell culture assay (antiviral activity, luciferase readout in infected MT-2 cells); type: cell-based; conditions: Human immunodeficiency virus 1, NL43, MT2
Experimental: HIV cell culture assay—MT-2 cells, 293T cells and the proviral DNA clone of NL4-3 virus were obtained from the NIH AIDS Research and Reference Reagent Program. MT-2 cells were propagated in RPMI 1640 media supplemented with 10% heat inactivated fetal bovine serum (FBS), 100 μg/ml penicillin G and up to 100 units/mL streptomycin. The 293T cells were propagated in DMEM media supplemented with 10% heat inactivated FBS, 100 μg/mL penicillin G and 100 μg/mL streptomycin. A recombinant NL4-3 proviral clone, in which a section of the nef gene was replaced with the Renilla luciferase gene, was used to make the reference virus used in these studies. The recombinant virus was prepared through transfection of the recombinant NL4-3 proviral clone into 293T cells using Transit-293 Transfection Reagent from Mirus Bio LLC (Madison, WI). Supernatant was harvested after 2-3 days and the amount of virus present was titered in MT-2 cells using luciferase enzyme activity as a marker by measuring luciferase enzyme activity. Luciferase was quantitated using the EnduRen Live Cell Substrate from Promega (Madison, WI). Antiviral activities of compounds toward the recombinant virus were quantified by measuring luciferase activity in MT-2 cells infected for 4-5 days with the recombinant virus in the presence of serial dilutions of the compound.
The 50% effective concentration (EC50) was calculated by using the exponential form of the median effect equation where (Fa)=1/[1+(ED50/drug conc.)m] (Johnson VA, Byington RT. Infectivity Assay. In Techniques in HIV Research. ed. Aldovini A, Walker BD. 71-76. New York: Stockton Press.1990). Curve fitting and analysis were performed with ActivityBase XE Runner software version 9.1.0.4 using model 203 (ID Business Solutions, LTD, Guildford, UK).

SMILES | CC50 at 4 day [1] [nM] | EC50 (recombinant NL4-3 virus) [nM]
CN(CCCOc1ccc2c(=O)n(-c3ccc(Cl)c4c(NS(C)(=O)=O)nn(C)c34)c([C@H](Cc3cc(F)cc(F)c3)NC(=O)Cn3nc(C(F)F)c4c3C(F)(F)[C@@H]3C[C@H]43)nc2n1)CC(F)(F)F (atropisomer, axis not shown; (P)) [Example 11, N-((S)-1-((3P)-3-(4-chloro-1-methyl-3-(methylsulfonamido)-1H-indazol-7-yl)-7-(3-(methyl(2,2,2-trifluoroethyl)amino)propoxy)-4-oxo-3,4-dihydropyrido[2,3-d]pyrimidin-2-yl)-2-(3,5-difluorophenyl)ethyl)-2-((3bS,4aR)-3-(difluoromethyl)-5,5-difluoro-3b,4,4a,5-tetrahydro-1H-cyclopropa[3,4]cyclopenta[1,2-c]pyrazol-1-yl)acetamide] | > 100 | 0.027
Cn1cc(CCOc2ccc3c(=O)n(-c4ccc(Cl)c5c(NS(C)(=O)=O)nn(C)c45)c([C@H](Cc4cc(F)cc(F)c4)NC(=O)Cn4nc(C(F)F)c5c4C(F)(F)[C@@H]4C[C@H]54)nc3n2)cn1 (atropisomer, axis not shown; (P)) [Example 12, N-((S)-1-((3P,3P)-3-(4-chloro-1-methyl-3-(methylsulfonamido)-1H-indazol-7-yl)-7-(2-(1-methyl-1H-pyrazol-4-yl)ethoxy)-4-oxo-3,4-dihydropyrido[2,3-d]pyrimidin-2-yl)-2-(3,5-difluorophenyl)ethyl)-2-((3bS,4aR)-3-(difluoromethyl)-5,5-difluoro-3b,4,4a,5-tetrahydro-1H-cyclopropa[3,4]cyclopenta[1,2-c]pyrazol-1-yl)acetamide] | > 100 | 0.14
Cn1nc(COc2ccc3c(=O)n(-c4ccc(Cl)c5c(NS(C)(=O)=O)nn(C)c45)c([C@H](Cc4cc(F)cc(F)c4)NC(=O)Cn4nc(C(F)F)c5c4C(F)(F)[C@@H]4C[C@H]54)nc3n2)cc1C(F)(F)F (atropisomer, axis not shown; (P)) [Example 13, N-((S)-1-((3P)-3-(4-chloro-1-methyl-3-(methylsulfonamido)-1H-indazol-7-yl)-7-((1-methyl-5-(trifluoromethyl)-1H-pyrazol-3-yl)methoxy)-4-oxo-3,4-dihydropyrido[2,3-d]pyrimidin-2-yl)-2-(3,5-difluorophenyl)ethyl)-2-((3bS,4aR)-3-(difluoromethyl)-5,5-difluoro-3b,4,4a,5-tetrahydro-1H-cyclopropa[3,4]cyclopenta[1,2-c]pyrazol-1-yl)acetamide] | > 100 | 0.058
Cn1nccc1CCOc1ccc2c(=O)n(-c3ccc(Cl)c4c(NS(C)(=O)=O)nn(C)c34)c([C@H](Cc3cc(F)cc(F)c3)NC(=O)Cn3nc(C(F)F)c4c3C(F)(F)[C@@H]3C[C@H]43)nc2n1 (atropisomer, axis not shown; (P)) [Example 14, N-((R)-1-((3P,3P)-3-(4-chloro-1-methyl-3-(methylsulfonamido)-1H-indazol-7-yl)-7-(2-(1-methyl-1H-pyrazol-5-yl)ethoxy)-4-oxo-3,4-dihydropyrido[2,3-d]pyrimidin-2-yl)-2-(3,5-difluorophenyl)ethyl)-2-((3bS,4aR)-3-(difluoromethyl)-5,5-difluoro-3b,4,4a,5-tetrahydro-1H-cyclopropa[3,4]cyclopenta[1,2-c]pyrazol-1-yl)acetamide] | > 500 | 0.061
COC(C)(C)CCOc1ccc2c(=O)n(-c3ccc(Cl)c4c(NS(C)(=O)=O)nn(C)c34)c([C@H](Cc3cc(F)cc(F)c3)NC(=O)Cn3nc(C(F)F)c4c3C(F)(F)[C@@H]3C[C@H]43)nc2n1 (atropisomer, axis not shown; (P)) [Example 15, N-((S)-1-((3P)-3-(4-chloro-1-methyl-3-(methylsulfonamido)-1H-indazol-7-yl)-7-(3-methoxy-3-methylbutoxy)-4-oxo-3,4-dihydropyrido[2,3-d]pyrimidin-2-yl)-2-(3,5-difluorophenyl)ethyl)-2-((3bS,4aR)-3-(difluoromethyl)-5,5-difluoro-3b,4,4a,5-tetrahydro-1H-cyclopropa[3,4]cyclopenta[1,2-c]pyrazol-1-yl)acetamide] | > 500 | 0.019
COC1(CCOc2ccc3c(=O)n(-c4ccc(Cl)c5c(NS(C)(=O)=O)nn(C)c45)c([C@H](Cc4cc(F)cc(F)c4)NC(=O)Cn4nc(C(F)F)c5c4C(F)(F)[C@@H]4C[C@H]54)nc3n2)CCC1 (atropisomer, axis not shown; (P)) [Example 16, N-((S)-1-((3P,3P)-3-(4-chloro-1-methyl-3-(methylsulfonamido)-1H-indazol-7-yl)-7-(2-(1-methoxycyclobutyl)ethoxy)-4-oxo-3,4-dihydropyrido[2,3-d]pyrimidin-2-yl)-2-(3,5-difluorophenyl)ethyl)-2-((3bS,4aR)-3-(difluoromethyl)-5,5-difluoro-3b,4,4a,5-tetrahydro-1H-cyclopropa[3,4]cyclopenta[1,2-c]pyrazol-1-yl)acetamide] | > 100 | 0.03
COCCCCCOc1ccc2c(=O)n(-c3ccc(Cl)c4c(NS(C)(=O)=O)nn(C)c34)c([C@H](Cc3cc(F)cc(F)c3)NC(=O)Cn3nc(C(F)F)c4c3C(F)(F)[C@@H]3C[C@H]43)nc2n1 (atropisomer, axis not shown; (P)) [Example 17, N-((S)-1-((3P)-3-(4-chloro-1-methyl-3-(methylsulfonamido)-1H-indazol-7-yl)-7-((5-methoxypentyl)oxy)-4-oxo-3,4-dihydropyrido[2,3-d]pyrimidin-2-yl)-2-(3,5-difluorophenyl)ethyl)-2-((3bS,4aR)-3-(difluoromethyl)-5,5-difluoro-3b,4,4a,5-tetrahydro-1H-cyclopropa[3,4]cyclopenta[1,2-c]pyrazol-1-yl)acetamide] | > 100 | 0.046
Cn1nc(NS(C)(=O)=O)c2c(Cl)ccc(-n3c([C@H](Cc4cc(F)cc(F)c4)NC(=O)Cn4nc(C(F)F)c5c4C(F)(F)[C@@H]4C[C@H]54)nc4nc(OCC(F)(F)C(F)(F)F)ccc4c3=O)c21 (atropisomer, axis not shown; (P)) [Example 18, N-(1-((3P,3P)-3-(4-chloro-1-methyl-3-(methylsulfonamido)-1H-indazol-7-yl)-4-oxo-7-(2,2,3,3,3-pentafluoropropoxy)-3,4-dihydropyrido[2,3-d]pyrimidin-2-yl)-2-(3,5-difluorophenyl)ethyl)-2-((3bS,4aR)-3-(difluoromethyl)-5,5-difluoro-3b,4,4a,5-tetrahydro-1H-cyclopropa[3,4]cyclopenta[1,2-c]pyrazol-1-yl)acetamide] | > 100 | 0.031
Cn1nc(NS(C)(=O)=O)c2c(Cl)ccc(-n3c([C@H](Cc4cc(F)cc(F)c4)NC(=O)Cn4nc(C(F)F)c5c4C(F)(F)[C@@H]4C[C@H]54)nc4nc(OCCC(F)(F)C(F)(F)F)ccc4c3=O)c21 (atropisomer, axis not shown; (P)) [Example 19, N-((S)-1-((3P)-3-(4-chloro-1-methyl-3-(methylsulfonamido)-1H-indazol-7-yl)-4-oxo-7-(3,3,4,4,4-pentafluorobutoxy)-3,4-dihydropyrido[2,3-d]pyrimidin-2-yl)-2-(3,5-difluorophenyl)ethyl)-2-((3bS,4aR)-3-(difluoromethyl)-5,5-difluoro-3b,4,4a,5-tetrahydro-1H-cyclopropa[3,4]cyclopenta[1,2-c]pyrazol-1-yl)acetamide] | > 100 | 0.044
Cn1nc(NS(C)(=O)=O)c2c(Cl)ccc(-n3c([C@H](Cc4cc(F)cc(F)c4)NC(=O)Cn4nc(C(F)F)c5c4C(F)(F)[C@@H]4C[C@H]54)nc4nc(OCCOCC(F)(F)C(F)(F)F)ccc4c3=O)c21 (atropisomer, axis not shown; (P)) [Example 20, N-((S)-1-((3P)-3-(4-chloro-1-methyl-3-(methylsulfonamido)-1H-indazol-7-yl)-4-oxo-7-(2-(2,2,3,3,3-pentafluoropropoxy)ethoxy)-3,4-dihydropyrido[2,3-d]pyrimidin-2-yl)-2-(3,5-difluorophenyl)ethyl)-2-((3bS,4aR)-3-(difluoromethyl)-5,5-difluoro-3b,4,4a,5-tetrahydro-1H-cyclopropa[3,4]cyclopenta[1,2-c]pyrazol-1-yl)acetamide] | > 100 | 0.045
